What all share (type): cell-based
Test [1] has as its system Acinetobacter baumannii ATCC 17978. To be noted: ATCC 17978. A digest of the protocol:
(§1)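 Lipopeptides (TFA salts) tested against Gram-negative strains by CLSI broth microdilution using cation-adjusted Mueller-Hinton broth; MIC recorded, polymyxin B sulphate as control.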

Test [2] has as its system Acinetobacter baumannii FADDI-AB034. As to conditions: FADDI-AB034. A digest of the protocol: as §1
The test system of test [3] is Enterobacter cloacae FADDI-EC001. To be noted: FADDI-EC001. Summed up: (§2)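 In cation-adjusted Mueller-Hinton broth, each lipopeptide (TFA salt) was titrated against the bacteria by microdilution and the minimum inhibitory concentration recorded per CLSI M100-S24; polymyxin B sulphate ran in parallel.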
The subject of test [4] is Enterobacter cloacae FADDI-EC003. To be noted: FADDI-EC003. A digest of the protocol:
as §1

For test [5], the system named is Enterobacter cloacae FADDI-EC006. To be noted: FADDI-EC006. A digest of the protocol:
as §1

Test [6] relates to Klebsiella pneumoniae FADDI-KP022. To be noted: FADDI-KP022. Summed up:
as §1

The test system of test [7] is Klebsiella pneumoniae FADDI-KP032. As to conditions: FADDI-KP032. Summed up: as §1
Test [8] relates to Klebsiella pneumoniae Kp BM1. As to conditions: Kp BM1. A digest of the protocol: as §2
Test [9] deals with Pseudomonas aeruginosa ATCC 27853. To be noted: ATCC 27853. A digest of the protocol:
as §1

Test [10] deals with Pseudomonas aeruginosa FADDI-PA01. As to conditions: FADDI-. A digest of the protocol: as §1
Test [11] relates to Pseudomonas aeruginosa FADDI-PA022. To be noted: FADDI-PA022. Summed up:
as §1

The subject of test [12] is Pseudomonas aeruginosa FADDI-PA038. As to conditions: FADDI-PA038. A digest of the protocol: as §1
Test [13] has as its system Acinetobacter baumannii FADDI-AB030. Put plainly: microbe, parasite or virus in culture. To be noted: FADDI-AB030. A digest of the protocol: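 Lipopeptide TFA salts tested against the multidrug-resistant clinical isolate by CLSI (M100-S24) broth microdilution in cation-adjusted Mueller-Hinton broth, with polymyxin B sulphate as control; MIC read.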

≈ marks a conversion by molar mass, not a printed value. Where a SMILES comes first, the peptide text is derived from it. Bridges are numbered along the chain shown (N, C = ends). [ ]: non-standard residue; d: D form. The star is where a group is joined. X43 = O=C(c1ccc(-c2ccc(Cl)cc2)cn1)*; X23 = O=C(c1cc2ccccc2[nH]1)*; X46 = O=C(c1cc(Br)nc(Br)c1)*; X34 = O=C(c1cc(Br)c(Br)o1)*; X15 = O=C(c1ccc(Cl)nc1Cl)*; Dab = NCC[C@H](N)C(=O)O; X68 = O=C(c1coc(Br)c1)*; Abu = CC[C@H](N)C(=O)O; Dap = NC[C@H](N)C(=O)O; X8 = O=C(c1ccnc(F)c1)*

For `CC[C@@H]1NC(=O)[C@@H](CC(C)C)NC(=O)[C@H](CCN)NC(=O)[C@@H](NC(=O)[C@H](CN)NC(=O)[C@@H](NC(=O)[C@H](CCN)NC(=O)c2ccc(Cl)nc2Cl)[C@@H](C)O)CCNC(=O)[C@H]([C@@H](C)O)NC(=O)[C@H](CCN)NC(=O)[C@H](CCN)NC1=O` [Compound 7] (X15-[Dab]T[Dap][Dab][Dab][dL][Abu][Dab][Dab]T; lactam 4-C), the Minimum inhibitory concentration in test [1] was 1 µg/mL (≈ 0.861 µM); in [2] it was 2 µg/mL (≈ 1.72 µM); in [3], less than 0.125 µg/mL; in [4], less than 0.125 µg/mL; in test [5], 0.25 µg/mL (≈ 0.215 µM); in [6], less than 0.125 µg/mL. Moreover, the Minimum inhibitory concentration in test [7] was found to be 1 µg/mL (≈ 0.861 µM); in test [8], 0.5 µg/mL (≈ 0.431 µM); in test [9], 1 µg/mL (≈ 0.861 µM); in test [10], 0.25 µg/mL (≈ 0.215 µM); in [11], 1 µg/mL (≈ 0.861 µM); in [12], 0.5 µg/mL (≈ 0.431 µM). The molecule also gave a Minimum inhibitory concentration in [13] of 0.5 µg/mL (≈ 0.431 µM).
Regarding `CC[C@@H]1NC(=O)[C@@H](CC(C)C)NC(=O)[C@H](CCN)NC(=O)[C@@H](NC(=O)[C@H](CN)NC(=O)[C@@H](NC(=O)[C@H](CCN)NC(=O)c2cc(Br)c(Br)o2)[C@@H](C)O)CCNC(=O)[C@H]([C@@H](C)O)NC(=O)[C@H](CCN)NC(=O)[C@H](CCN)NC1=O` [Compound 79] (X34-[Dab]T[Dap][Dab][Dab][dL][Abu][Dab][Dab]T; lactam 4-C), the Minimum inhibitory concentration in test [1] was 0.5 µg/mL (≈ 0.404 µM); in [2], 0.5 µg/mL (≈ 0.404 µM); in test [3], less than 0.125 µg/mL; in test [4] it was less than 0.125 µg/mL; in [5], 0.25 µg/mL (≈ 0.202 µM); in test [6] it was less than 0.125 µg/mL. For the same molecule, the Minimum inhibitory concentration is less than 0.125 µg/mL in [7]; 0.25 µg/mL (≈ 0.202 µM) in test [8]; 0.25 µg/mL (≈ 0.202 µM) in test [9]; 1 µg/mL (≈ 0.807 µM) in [10]; 0.25 µg/mL (≈ 0.202 µM) in [11]; 0.5 µg/mL (≈ 0.404 µM) in test [12]. The molecule further yielded a Minimum inhibitory concentration in test [13] of 0.25 µg/mL (≈ 0.202 µM).
Regarding `CC(C)C[C@H]1NC(=O)[C@H](CCN)NC(=O)[C@@H](NC(=O)[C@H](CN)NC(=O)[C@@H](NC(=O)[C@H](CCN)NC(=O)c2cc3ccccc3[nH]2)[C@@H](C)O)CCNC(=O)[C@H]([C@@H](C)O)NC(=O)[C@H](CCN)NC(=O)[C@H](CCN)NC(=O)[C@H](C)NC1=O` [Compound 67] (X23-[Dab]T[Dap][Dab][Dab][dL]A[Dab][Dab]T; lactam 4-C), the Minimum inhibitory concentration in test [1] was determined as 2 µg/mL (≈ 1.79 µM); in test [2] it was 1 µg/mL (≈ 0.896 µM); in [3] it was 0.5 µg/mL (≈ 0.448 µM); in [4] it was 0.5 µg/mL (≈ 0.448 µM); in test [5], 1 µg/mL (≈ 0.896 µM); in [6], 0.5 µg/mL (≈ 0.448 µM). Moreover, the Minimum inhibitory concentration was 0.5 µg/mL (≈ 0.448 µM) in test [7]; 0.5 µg/mL (≈ 0.448 µM) in test [8]; 0.25 µg/mL (≈ 0.224 µM) in test [9]; 0.5 µg/mL (≈ 0.448 µM) in test [10]; 0.25 µg/mL (≈ 0.224 µM) in test [11]; 1 µg/mL (≈ 0.896 µM) in test [12]. This molecule also had a Minimum inhibitory concentration in test [13] of 1 µg/mL (≈ 0.896 µM).
With `CC(C)C[C@H]1NC(=O)[C@H](CCN)NC(=O)[C@@H](NC(=O)[C@H](CN)NC(=O)[C@@H](NC(=O)[C@H](CCN)NC(=O)c2ccc(-c3ccc(Cl)cc3)cn2)[C@@H](C)O)CCNC(=O)[C@H]([C@@H](C)O)NC(=O)[C@H](CCN)NC(=O)[C@H](CCN)NC(=O)[C@H]([C@@H](C)O)NC1=O` [Compound 15] (X43-[Dab]T[Dap][Dab][Dab][dL]T[Dab][Dab]T; lactam 4-C), the Minimum inhibitory concentration was 0.5 µg/mL (≈ 0.41 µM) in test [1]; 0.5 µg/mL (≈ 0.41 µM) in [2]; 0.25 µg/mL (≈ 0.205 µM) in test [3]; less than 0.125 µg/mL in test [4]; 0.25 µg/mL (≈ 0.205 µM) in [5]; less than 0.125 µg/mL in test [6]. Also, the Minimum inhibitory concentration in test [7] worked out at 0.25 µg/mL (≈ 0.205 µM); in test [8], 0.5 µg/mL (≈ 0.41 µM); in [9], 1 µg/mL (≈ 0.82 µM); in test [10], 2 µg/mL (≈ 1.64 µM); in test [11], 2 µg/mL (≈ 1.64 µM); in test [12] it was 1 µg/mL (≈ 0.82 µM). In test [13], this molecule yielded a Minimum inhibitory concentration of 1 µg/mL (≈ 0.82 µM).
`CC[C@@H]1NC(=O)[C@@H](CC(C)C)NC(=O)[C@H](CCN)NC(=O)[C@@H](NC(=O)[C@H](CN)NC(=O)[C@@H](NC(=O)[C@H](CCN)NC(=O)c2cc(Br)nc(Br)c2)[C@@H](C)O)CCNC(=O)[C@H]([C@@H](C)O)NC(=O)[C@H](CCN)NC(=O)[C@H](CCN)NC1=O` [Compound 28] (X46-[Dab]T[Dap][Dab][Dab][dL][Abu][Dab][Dab]T; lactam 4-C): the Minimum inhibitory concentration in test [1] is 0.25 µg/mL (≈ 0.2 µM); in test [2], 0.25 µg/mL (≈ 0.2 µM); in test [3], 0.25 µg/mL (≈ 0.2 µM); in test [4], 0.25 µg/mL (≈ 0.2 µM); in test [5], less than 0.125 µg/mL; in [6] it was less than 0.125 µg/mL. Further, the Minimum inhibitory concentration in test [7] was 0.25 µg/mL (≈ 0.2 µM); in [8], 0.25 µg/mL (≈ 0.2 µM); in test [9], 0.25 µg/mL (≈ 0.2 µM); in [10], 1 µg/mL (≈ 0.8 µM); in test [11], 0.25 µg/mL (≈ 0.2 µM); in [12], 1 µg/mL (≈ 0.8 µM). In addition, the Minimum inhibitory concentration in test [13] turned out to be 0.25 µg/mL (≈ 0.2 µM).
Take `CC[C@@H]1NC(=O)[C@@H](CC(C)C)NC(=O)[C@H](CCN)NC(=O)[C@@H](NC(=O)[C@H](CN)NC(=O)[C@@H](NC(=O)[C@H](CCN)NC(=O)c2coc(Br)c2)[C@@H](C)O)CCNC(=O)[C@H]([C@@H](C)O)NC(=O)[C@H](CCN)NC(=O)[C@H](CCN)NC1=O` [Compound 103] (X68-[Dab]T[Dap][Dab][Dab][dL][Abu][Dab][Dab]T; lactam 4-C): the Minimum inhibitory concentration in [1] was 1 µg/mL (≈ 0.862 µM); in [2], 1 µg/mL (≈ 0.862 µM); in test [3], 0.5 µg/mL (≈ 0.431 µM); in test [4], 0.5 µg/mL (≈ 0.431 µM); in test [5] it was 0.5 µg/mL (≈ 0.431 µM); in [6], less than 0.125 µg/mL. For the same molecule, the Minimum inhibitory concentration in test [7] was found to be 0.5 µg/mL (≈ 0.431 µM); in test [8], 0.5 µg/mL (≈ 0.431 µM); in test [9] it was 0.5 µg/mL (≈ 0.431 µM); in test [10], 0.5 µg/mL (≈ 0.431 µM); in test [11] it was 0.5 µg/mL (≈ 0.431 µM); in test [12], 2 µg/mL (≈ 1.72 µM). Further, the Minimum inhibitory concentration in [13] was 1 µg/mL (≈ 0.862 µM).
Consider `CC[C@@H]1NC(=O)[C@@H](CC(C)C)NC(=O)[C@H](CCN)NC(=O)[C@@H](NC(=O)[C@H](CN)NC(=O)[C@@H](NC(=O)[C@H](CCN)NC(=O)c2ccnc(F)c2)[C@@H](C)O)CCNC(=O)[C@H]([C@@H](C)O)NC(=O)[C@H](CCN)NC(=O)[C@H](CCN)NC1=O` [Compound 31] (X8-[Dab]T[Dap][Dab][Dab][dL][Abu][Dab][Dab]T; lactam 4-C), for which the Minimum inhibitory concentration is 2 µg/mL (≈ 1.8 µM) in test [1]; 2 µg/mL (≈ 1.8 µM) in [2]; 0.5 µg/mL (≈ 0.45 µM) in test [3]; 0.5 µg/mL (≈ 0.45 µM) in [4]; 1 µg/mL (≈ 0.901 µM) in test [5]; less than 0.125 µg/mL in [6]. For the same molecule, the Minimum inhibitory concentration turned out to be 1 µg/mL (≈ 0.901 µM) in [7]; 1 µg/mL (≈ 0.901 µM) in test [8]; 0.25 µg/mL (≈ 0.225 µM) in [9]; 0.25 µg/mL (≈ 0.225 µM) in test [10]; 0.25 µg/mL (≈ 0.225 µM) in [11]; 0.5 µg/mL (≈ 0.45 µM) in [12]. In test [13], this molecule came in with a Minimum inhibitory concentration of 2 µg/mL (≈ 1.8 µM).

For the origin of these results see patent publication US11225505B2, “Antimicrobial polymyxin derivative compounds” (MONASH UNIVERSITY, priority 2015, dated 2022).
